Several values for one entry are separate records, joined by “and”; a condition that tells them apart may be missing. Identical values can stand only once. Like-named read-outs stand apart in the source and are kept apart here.
Tests used:
[1] = biological target: T1, androgen receptor LBD (Panvera) (Rattus norvegicus, UniProt P15207); assay: Androgen Receptor Filtration Binding Assay (PANVERA)
T1 construct: 5 pmol androgen receptor LBD (Panvera); purchased Panvera
T1 sequence (P15207 651-882 limits assumed): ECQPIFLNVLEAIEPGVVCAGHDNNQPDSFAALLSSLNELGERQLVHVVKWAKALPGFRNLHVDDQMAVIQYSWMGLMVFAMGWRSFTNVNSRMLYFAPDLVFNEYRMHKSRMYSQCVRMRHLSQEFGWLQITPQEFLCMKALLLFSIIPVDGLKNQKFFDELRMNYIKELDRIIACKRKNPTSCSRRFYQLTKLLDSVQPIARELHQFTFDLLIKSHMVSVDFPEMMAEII
Method: The assay was run on a 96 well plate with each well filled with a total reaction volume 150 μL, of a solution containing 5 pmol androgen receptor LBD (Panvera) or 30 μL of freshly prepared rat cytosol, 0.5 nM [^3H] […] (TED buffer contains 10 mM Tris.HCl pH 7.4, 1 mM sodium molybdate, 1.5 mM EDTA, 1 mM DTT and 10% (v/v) glycerol.)
On day one, the solution containing receptor, tracer and TED buffer was distributed into a 96 well plate. Diluted test compound or control vehicle was then added to individual wells and the plate incubated at 4° C. overnight.
On day two, to each well was then added 20 μL human γ-globulin (ICN 823102), prepared at 25 mg/ml in TE pH 8.0, and 55 μL 40% polyethylene glycol 8000 (J T Baker U222-08), prepared in TE pH 8.0. The plate was incubated at 4° C. for 60 minutes. During incubation, the harvester was rinsed with 10% PEG 8000, prepared in TE pH 8.0, and a GF/C Unifilter-96 was pre-wet with 10% PEG. The binding reaction was filtered, the retentate was washed three times with 10% PEG and dried under vacuum for a couple of minutes, then dried at 50° C. for 5 min and the plate was bottom sealed. Next, 25 μL of Microscint-20 (Packard) was added to the filter wells and the plate was top sealed. The plate wells were then counted on a TopCount (Packard).
Counts per well were measured and IC50s determined by linear regression.

[2] = biological target: T2, androgen receptor (rat ventral prostate cytosol) (Rattus norvegicus, UniProt P15207); assay: Androgen Receptor Binding Using Rat Ventral Prostate Cytosol; settings: for inhibition at 1 µM: read-out: % Inhibition, Androgen Receptor Binding (Rat Cytosol)
T2 construct: from tissue; host or cells: ventral prostate cytosol of castrated male Sprague Dawley or Wistar rats
T2 sequence (P15207 1-902): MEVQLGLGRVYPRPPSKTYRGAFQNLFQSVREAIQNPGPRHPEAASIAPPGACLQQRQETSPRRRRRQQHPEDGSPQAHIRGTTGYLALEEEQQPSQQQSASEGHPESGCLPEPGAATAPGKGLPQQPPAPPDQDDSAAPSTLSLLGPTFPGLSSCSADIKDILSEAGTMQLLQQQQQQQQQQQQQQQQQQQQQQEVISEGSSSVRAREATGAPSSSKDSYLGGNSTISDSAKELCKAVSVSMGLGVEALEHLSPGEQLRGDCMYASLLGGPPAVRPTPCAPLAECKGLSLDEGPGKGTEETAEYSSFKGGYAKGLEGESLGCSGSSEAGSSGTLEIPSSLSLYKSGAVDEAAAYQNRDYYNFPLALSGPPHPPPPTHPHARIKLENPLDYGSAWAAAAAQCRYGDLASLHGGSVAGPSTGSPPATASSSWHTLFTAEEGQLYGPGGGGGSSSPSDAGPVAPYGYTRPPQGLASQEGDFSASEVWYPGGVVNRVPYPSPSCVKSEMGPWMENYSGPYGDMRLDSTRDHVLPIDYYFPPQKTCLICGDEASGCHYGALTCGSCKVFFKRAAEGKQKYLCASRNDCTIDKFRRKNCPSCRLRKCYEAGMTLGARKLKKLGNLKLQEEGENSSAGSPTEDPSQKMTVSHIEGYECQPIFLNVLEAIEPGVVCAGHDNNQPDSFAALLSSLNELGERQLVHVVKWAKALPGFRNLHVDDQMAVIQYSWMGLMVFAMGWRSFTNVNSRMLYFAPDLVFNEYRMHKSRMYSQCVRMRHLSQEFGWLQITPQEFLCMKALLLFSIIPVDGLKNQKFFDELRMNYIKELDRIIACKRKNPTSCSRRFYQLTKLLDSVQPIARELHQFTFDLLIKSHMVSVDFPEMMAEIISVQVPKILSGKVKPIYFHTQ
How it was run: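 Cytosol from castrated rat ventral prostate was incubated overnight at 4°C with 0.5 nM [3H] tracer and compound in TED buffer (10 mM Tris-HCl pH 7.4, molybdate, EDTA, DTT, glycerol).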

[3] = [3H] R1881 tracer 0.5 nM, read-out: IC50 (nM), Androgen Receptor Binding (Panvera)
[4] = read-out: IC50 (nM), Androgen Receptor Binding (Rat Cytosol)
[5] = IC50 (nM), Androgen Receptor Binding (Panvera)
[6] = read-out: IC50 (nM), Androgen Receptor Binding (Panvera)

Row | Structure (SMILES) | IC50 [1, 3] | inhibition at 1 µM ([2]; Concentration 1000 nM) | also measured
1 | CC(O)(CSc1ccc(F)cc1)c1cc2cc(Cl)ccc2[nH]1 (stereo not shown) [Compound 100] | 1160 nM | 80% | 
2 | CC(O)(CSc1ccccc1)c1cc2ccccc2n1S(C)(=O)=O (stereo not shown) [Compound 90] | > 9000 nM | -2.5% | 
3 | CC(O)(CSc1ccc(Cl)cc1)c1cc2ccccc2n1S(C)(=O)=O (stereo not shown) [Compound 88] | 5150 nM | -17.4% | 
4 | COC(=O)c1ccc2[nH]c(C(C)(O)CSc3ccc(Cl)cc3)cc2c1 (stereo not shown) [Compound 97] | 7400 nM | 25% | 
5 | CC(O)(COC(=O)c1ccc(Cl)c(Cl)c1)c1cc2cc([N+](=O)[O-])c(C(F)(F)F)cc2[nH]1 (stereo not shown) [Compound 56] | 485 nM and 610 nM | 38.5% | 
6 | O=C(c1ccc(Cl)cc1)N1CCC(O)(c2cc3cc(Cl)c(C(F)(F)F)cc3[nH]2)CC1 [Compound 25] | 8800 nM |  | % Inhibition, Androgen Receptor Binding (Rat Cytosol) ([2]; Concentration 1000 nM): −83.5%
7 | CC(O)(CSc1ccc(F)cc1)c1cc2cc(C#N)c(C(F)(F)F)cc2[nH]1 (stereo not shown) [Compound 109] | 2600 nM | 49% | 
8 | CC(O)(CSC1CCCCC1)c1cc2nc(C(F)(F)F)ccc2[nH]1 (racemic) [Compound 1] | 14000 nM | 22% | 
9 | CS(=O)(=O)n1c(C2(O)CCN(C(=O)OCc3ccccc3)CC2)cc2cc(Cl)c(C(F)(F)F)cc21 [Compound 19] | > 100000 nM |  | % Inhibition, Androgen Receptor Binding (Rat Cytosol) ([2]; Concentration 1000 nM): −55%
10 | CC(O)(CSc1ccc(Cl)cc1)c1cc2cc([N+](=O)[O-])c(C(F)(F)F)cc2o1 (racemic) [Compound 8] | 2650 nM | -2% | 
11 | CC(O)(C[S+]([O-])c1ccc(F)cc1)c1cc2cc(Cl)c(C(F)(F)F)cc2[nH]1 (stereo not shown) [Compound 114] | 4900 nM |  | % Inhibition, Androgen Receptor Binding (Rat Cytosol) ([2]; Concentration 1000 nM, 1 µM): 61%
12 | COC(=O)c1ccc2c(c1)cc(C(C)(O)CSC1CCCCC1)n2S(C)(=O)=O (stereo not shown) [Compound 93] | 23000 nM | 35% | 
13 | CC(O)(CSC1CCCCC1)c1cc2cc(C#N)c(C(F)(F)F)cc2[nH]1 (stereo not shown) [Compound 92] | 37000 nM | 14.7% | 
14 | CS(=O)(=O)n1c(C2(O)CCN(Cc3ccccc3)CC2)cc2cc(Cl)c(C(F)(F)F)cc21 [Compound 21] | > 10200 nM |  | % Inhibition, Androgen Receptor Binding (Rat Cytosol) ([2]; Concentration 1000 nM): −41.5%
15 | OC1(c2cc3cc(Cl)c(C(F)(F)F)cc3[nH]2)CCN(Cc2ccccc2)CC1 [Compound 22] | > 9600 nM |  | IC50 [2, 4]: > 7700 nM
16 | CC(O)(C[S+]([O-])c1ccc(Cl)c(Cl)c1)c1cc2cc(Cl)c(C(F)(F)F)cc2[nH]1 (stereo not shown) [Compound 117] | 2000 nM |  | % Inhibition, Androgen Receptor Binding (Rat Cytosol) ([2]; Concentration 1000 nM, 1 µM): 32.5%
17 | COC(=O)c1ccc2[nH]c(C(C)(O)CSC3CCCCC3)cc2c1 (stereo not shown) [Compound 94] | 15000 nM | 21.8% | 
18 | CC(O)(COC(=O)c1ccccc1Cl)c1cc2cc([N+](=O)[O-])c(C(F)(F)F)cc2[nH]1 (stereo not shown) [Compound 54] |  |  | IC50 [1, 5]: 220 nM; IC50 [1, 6]: 465 nM; inhibition at 1 µM [2]: 5.5%
19 | CC(O)(COC(=O)c1cccnc1)c1cc2cc(C#N)c(C(F)(F)F)cc2[nH]1 (stereo not shown) [Compound 79] | > 9500 nM | 48.5% | 
20 | CC(O)(COC(=O)c1ccccc1)c1cc2cc(C#N)c(C(F)(F)F)cc2[nH]1 (stereo not shown) [Compound 75] |  |  | IC50 [1, 5]: 9100 nM; inhibition at 1 µM [2]: 13.2%
21 | CC(O)(C[S+]([O-])c1ccccc1)c1cc2cc(Cl)c(C(F)(F)F)cc2[nH]1 (stereo not shown) [Compound 112] | 4100 nM | 39.5% | 

Row | Structure (SMILES) | IC50 [1, 3] | inhibition at 1 µM ([2]; Concentration 1000 nM) | also measured
22 | CS(=O)(=O)n1c(C2(O)CCNCC2)cc2cc(Cl)c(C(F)(F)F)cc21 [Compound 23] | 54000 nM |  | % Inhibition, Androgen Receptor Binding (Rat Cytosol) ([2]; Concentration 1000 nM): −1.5%; IC50 [2, 4]: 6000 nM
23 | CC(O)(COC(=O)c1ccccc1C(F)(F)F)c1cc2cc(N)c(C(F)(F)F)cc2[nH]1 (stereo not shown) [Compound 59] |  |  | IC50 [1, 6]: 4100 nM; IC50 [2]: 220 nM; inhibition at 1 µM [2]: 67.5%
24 | CC(O)(CSc1ccccc1)c1cc2cc(C#N)c(C(F)(F)F)cc2[nH]1 (stereo not shown) [Compound 95] | 3000 nM | 56.5% | 
25 | CC(O)(CSc1ccc(Cl)cc1)c1cc2cc(Cl)ccc2n1S(C)(=O)=O (stereo not shown) [Compound 101] | 3850 nM | -24.9% | 
26 | COc1ccc(C(=O)OCC(C)(O)c2cc3cc([N+](=O)[O-])c(C(F)(F)F)cc3[nH]2)cc1 (stereo not shown) [Compound 65] | 945 nM | 47.5% | 
27 | CC(O)(COC(=O)c1c(Cl)cccc1Cl)c1cc2cc([N+](=O)[O-])c(C(F)(F)F)cc2[nH]1 (stereo not shown) [Compound 52] | 150 nM | 94.5% | IC50 [2, 4]: 79 nM
28 | CC(O)(COC(=O)c1ccccc1)c1cc2cc([N+](=O)[O-])c(C(F)(F)F)cc2[nH]1 (stereo not shown) [Compound 64] | 815 nM | 61.5% | 
29 | CC(O)(CCl)c1cc2nc(C(F)(F)F)ccc2n1S(C)(=O)=O (stereo not shown) [Compound 4] | 7600 nM | 10.8% | 
30 | CC(O)(COC(=O)c1ccc([N+](=O)[O-])cc1)c1cc2cc([N+](=O)[O-])c(C(F)(F)F)cc2[nH]1 (stereo not shown) [Compound 63] | 1550 nM | 47.5% | 
31 | CN(C)c1ccc(C(=O)OCC(C)(O)c2cc3cc([N+](=O)[O-])c(C(F)(F)F)cc3[nH]2)cc1 (stereo not shown) [Compound 67] | 3000 nM | 25.5% | 
32 | CC(O)(COC(=O)c1ccccc1)c1cc2cc(Cl)c(C(F)(F)F)cc2[nH]1 (stereo not shown) [Compound 61] | 440 nM | 73% | 
33 | CC(O)(CSc1ccc(F)cc1)c1cc2nc(C(F)(F)F)ccc2[nH]1 (racemic) [Compound 5] | 39000 nM | 5.5% | 
34 | CC(O)(CSc1ccccc1)c1cc2nc(C(F)(F)F)ccc2[nH]1 (racemic) [Compound 2] | 53000 nM | 2.5% | 
35 | CC(O)(c1cc2cc(C#N)c(C(F)(F)F)cc2[nH]1)S(=O)(=O)c1ccc(Cl)cc1 (racemic) [Compound 262] | > 10000 nM |  | % Inhibition, Androgen Receptor Binding (Rat Cytosol) ([2]; Concentration 1000 nM): −8.4%
36 | CC(O)(C[S+]([O-])c1ccc(Cl)c(Cl)c1)c1cc2cc(Cl)c(C(F)(F)F)cc2[nH]1 (stereo not shown) [Compound 116] | 1750 nM | 28.4% | 
37 | CC(C)(C)c1ccc(C(=O)OCC(C)(O)c2cc3cc([N+](=O)[O-])c(C(F)(F)F)cc3[nH]2)cc1 (stereo not shown) [Compound 80] | 6400 nM | -24.9% | 
38 | CC(O)(COC(=O)c1ccc(Cl)cc1)c1cc2cc(Cl)ccc2[nH]1 (stereo not shown) [Compound 53] | 1970 nM | 9.75% | 
39 | CC(O)(CSc1ccc(Cl)cc1)c1cc2cc(C#N)c(C(F)(F)F)cc2[nH]1 (stereo not shown) [Compound 96] |  |  | IC50 [1, 5]: 820 nM; IC50 [1, 6]: 1710 nM; % Inhibition, Androgen Receptor Binding (Rat Cytosol) ([2]; 1 µM): 59%; inhibition at 1 µM [2]: 74%
40 | CC(O)(CSc1ccc(F)cc1)c1cc2ccccc2n1S(C)(=O)=O (stereo not shown) [Compound 107] | 9400 nM | 1.5% | 
41 | CC(O)(CSc1ccc(Cl)cc1)c1cc2nc(C(F)(F)F)ccc2[nH]1 (racemic) [Compound 3] | 26000 nM | 6.6% | 

From US7282507B2, “Indole derivatives as selective androgen receptor modulators (SARMS)” (Janssen Pharmaceutica N.V., priority 2004, dated 2007)
